PubChem BioAssay (NCI)
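Briefly, cells in 96-well plates were exposed to five compound concentrations for 48 h, and endpoints were estimated by linear interpolation. Definition used: TGI = concentration required for complete inhibition of growth.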

Assays:
Assay in all cases: NCI-60 cell line screen, 48 h
SR leukemia = tested on: SR leukemia
HOP-62 NSCLC = tested on: HOP-62 NSCLC
SK-MEL-5 melanoma = tested on: SK-MEL-5 melanoma
HL-60(TB) leukemia = tested on: HL-60(TB) leukemia
M14 melanoma = tested on: M14 melanoma
NCI-H522 lung = tested on: NCI-H522 lung
A498 renal = tested on: A498 renal
SW-620 colon = tested on: SW-620 colon
UO-31 renal = tested on: UO-31 renal
OVCAR-4 ovarian = tested on: OVCAR-4 ovarian

| Structure (SMILES) | TGI (SR leukemia) | TGI (HOP-62 NSCLC) | TGI (SK-MEL-5 melanoma) | TGI (HL-60(TB) leukemia) | TGI (M14 melanoma) | TGI (NCI-H522 lung) | TGI (A498 renal) | TGI (SW-620 colon) | TGI (UO-31 renal) | TGI (OVCAR-4 ovarian) |
| --- | --- | --- | --- | --- | --- | --- | --- | --- | --- | --- |
| NCCCCNCCCNC(=O)c1nc(-c2nc(CCN)sc2Cl)sc1Cl | > 100 µM | > 100 µM | > 100 µM | > 100 µM | > 100 µM | 55.9 µM | > 100 µM | > 100 µM | > 100 µM | 71.8 µM |
| COc1ccccc1CN=C1Nc2ccncc2S(=O)(=O)N1c1ccccc1 | > 100 µM | – | > 100 µM | > 100 µM | > 100 µM | > 100 µM | > 100 µM | > 100 µM | > 100 µM | > 100 µM |
| Cn1c(=O)c(-c2ccccc2)c(O)c2ccccc21 | > 100 µM | > 100 µM | > 100 µM | > 100 µM | – | > 100 µM | > 100 µM | > 100 µM | > 100 µM | > 100 µM |
| CCOc1ccc(Nc2nc(N)nc(N)c2N)cc1 | 59.3 µM | 79 µM | > 100 µM | > 100 µM | > 100 µM | 52.1 µM | > 100 µM | > 100 µM | 74.3 µM | > 100 µM |
| O=[N+]([O-])c1ccc(NC(=S)N=Nc2c(O)[nH]c3ccc([N+](=O)[O-])cc23)cc1 | > 100 µM | 50.4 µM | 30.7 µM | 73.1 µM | 41.9 µM | 60.5 µM | 32.7 µM | > 100 µM | 45.1 µM | 40.8 µM |
| CCC(CO)Nc1nc(NCc2ccccc2)c2ncn(C(C)C)c2n1 (stereo unspecified) | 19 µM | 33.9 µM | > 51.8 µM | > 70.5 µM | 32.7 µM | 55.4 µM | 77.3 µM | > 79 µM | 40.7 µM | > 58.1 µM |
| CCC(O)(Cc1ccc(OC)cc1)c1ccc(OC)cc1 (stereo unspecified) | > 100 µM | > 100 µM | > 100 µM | > 100 µM | > 100 µM | > 100 µM | > 100 µM | > 100 µM | > 100 µM | > 100 µM |
| COC(=O)C1C(C(=O)OC)C2(OC(c3ccc(Cl)cc3)=CC2=O)C12OC(c1ccc(Cl)cc1)=CC2=O (stereo unspecified) | 10.9 µM | – | 37.9 µM | 8.29 µM | 42.8 µM | 36.1 µM | 76.1 µM | > 100 µM | 33.6 µM | 64.1 µM |
| COC(=O)C1=C(C(=O)OC)SC(=CC#CC=C2SC(C(=O)OC)=C(C(=O)OC)S2)S1 | > 100 µM | 12.2 µM | > 86.5 µM | > 100 µM | > 76.2 µM | 54.8 µM | 34.7 µM | > 52 µM | 14.1 µM | 35.3 µM |
| CCCCSc1nsc(N(C(=O)c2ccccc2)C(=O)c2ccccc2)n1 | 48.3 µM | > 100 µM | 36.6 µM | 74 µM | > 100 µM | 69.5 µM | 88.8 µM | > 100 µM | 39.5 µM | > 100 µM |
| CC1C(NNc2ccccc2)Oc2cc3c(cc2C1c1ccccc1O)OCO3 (stereo unspecified) | 11.6 µM | 16.2 µM | 24.1 µM | 15.1 µM | 11.2 µM | 14.2 µM | 29.2 µM | 28.6 µM | 11 µM | – |
| COC(=O)Cc1ccc2c(cnn2-c2ccccc2)c1OC | > 10 µM | > 10 µM | > 10 µM | > 10 µM | > 10 µM | > 10 µM | > 10 µM | > 10 µM | – | > 10 µM |
| CSc1nc(NC(C)C)c2c(n1)Sc1nc3ccccc3n1N=C2 | > 100 µM | 22.2 µM | 23.9 µM | > 100 µM | > 100 µM | 50.5 µM | 12.6 µM | 35.3 µM | 25.6 µM | 22.5 µM |
| CCCCC1=C(C(=O)N2CCOCC2)C2(OCCO2)C1=O | > 100 µM | 54.1 µM | 33.2 µM | 61.2 µM | 43.8 µM | 32.6 µM | 62.1 µM | 81.9 µM | 30.3 µM | > 100 µM |
| C=C1C(OC2O[C@@H]3O[C@@]4(C)CC[C@H]5[C@H](C)CC[C@@H](C2=C)[C@@]35O4)O[C@@H]2O[C@@]3(C)CC[C@H]4[C@H](C)CC[C@@H]1[C@@]24O3 (stereo partly specified) | > 50 µM | > 50 µM | > 50 µM | > 50 µM | > 50 µM | > 50 µM | > 50 µM | > 50 µM | > 50 µM | > 50 µM |
| Cc1cc(S(=O)(=O)Nc2n[nH]c(-c3ccccn3)n2)c(S)cc1Cl | > 100 µM | 59 µM | 24.3 µM | 41.2 µM | 44.5 µM | 72.4 µM | 30.5 µM | 54.2 µM | 10.5 µM | 65.5 µM |
| N#CC1(O)CCCCCCCCCCC1 | > 100 µM | > 100 µM | > 100 µM | > 100 µM | > 100 µM | > 100 µM | > 100 µM | > 100 µM | > 100 µM | > 100 µM |
| COc1cc(C(c2c(O)c3ccccc3oc2=O)c2c(O)c3ccccc3oc2=O)cc(Br)c1O | 58.3 µM | 45.8 µM | 29.8 µM | 64.2 µM | 31.4 µM | 26.8 µM | 29.4 µM | 48.4 µM | 31 µM | 30.9 µM |

| Structure (SMILES) | TGI (SR leukemia) | TGI (HOP-62 NSCLC) | TGI (SK-MEL-5 melanoma) | TGI (HL-60(TB) leukemia) | TGI (M14 melanoma) | TGI (NCI-H522 lung) | TGI (A498 renal) | TGI (SW-620 colon) | TGI (UO-31 renal) | TGI (OVCAR-4 ovarian) |
| --- | --- | --- | --- | --- | --- | --- | --- | --- | --- | --- |
| CC1CCC2(NC1)OC1CC3C4CC=C5CC(OC6OC(CO)C(OC7OC(C)C(O)C(O)C7O)C(O)C6OC6OC(C)C(O)C(O)C6O)CCC5(C)C4CCC3(C)C1C2C (stereo unspecified) | 27.8 µM | > 100 µM | 33.9 µM | > 36 µM | 6.39 µM | 3.43 µM | 11.8 µM | 22.3 µM | 21.1 µM | 7.27 µM |
| C=C(C)OCOCCOC | > 100 µM | > 100 µM | > 100 µM | > 100 µM | > 100 µM | > 100 µM | > 100 µM | > 100 µM | > 100 µM | – |
| Cc1cc(C)c(S(=O)(=O)N(CCCN)OCCCON(CCCN)S(=O)(=O)c2c(C)cc(C)cc2C)c(C)c1 | 7.83 µM | 4.02 µM | > 42.8 µM | 5.64 µM | 3.21 µM | 2.88 µM | 10.7 µM | 6.45 µM | 30.4 µM | 5.22 µM |
| CS(=O)(=O)Nc1ccc2c(c1)N(S(C)(=O)=O)CC2CCl (stereo unspecified) | > 100 µM | > 100 µM | > 100 µM | > 100 µM | – | > 100 µM | > 100 µM | > 100 µM | > 100 µM | > 100 µM |
| O=C(/C=C/C(=O)N1CCCC1)N1CCCC1 | > 100 µM | > 100 µM | > 100 µM | > 100 µM | > 100 µM | > 100 µM | > 100 µM | > 100 µM | > 100 µM | > 100 µM |
| Nc1nc(Cl)cc(NCC2(O)CC2)n1 | > 100 µM | > 100 µM | > 100 µM | > 100 µM | – | > 100 µM | > 100 µM | > 100 µM | > 100 µM | > 100 µM |
| C/C=C(/C)C(=O)OC1CC(C)[C@H]2CC(=O)C(C)=C2CC1C(C)(C)OC(C)=O (stereo partly specified) | 78.9 µM | 95 µM | 29.7 µM | 49.8 µM | 63.8 µM | 53 µM | 41.1 µM | > 100 µM | 83.9 µM | 68 µM |
| COC(=O)[C@@H]1CCCCC[C@H]2C(CO)=C(C)C(=O)C12 (stereo partly specified) | > 100 µM | > 100 µM | > 100 µM | > 100 µM | > 100 µM | > 100 µM | > 100 µM | > 100 µM | > 100 µM | > 100 µM |
| c1ccc2c(c1)Sc1nccc3ccnc-2c13 | > 100 µM | > 100 µM | > 100 µM | > 100 µM | > 100 µM | 97.1 µM | > 100 µM | > 100 µM | 47.6 µM | > 100 µM |
| Cc1[nH]c(=O)nc(NCCNCCO)c1C(=O)Nc1cccc2cc3ccccc3cc12 | > 100 µM | > 100 µM | > 100 µM | > 100 µM | > 100 µM | > 100 µM | > 100 µM | > 100 µM | – | > 100 µM |
| O=C1C=CC(=O)c2c(O)c(N3CCC[C@H]3CO)c(Cl)c(O)c21 | 1.4 µM | > 10 µM | 3.11 µM | 0.249 µM | 3.61 µM | 0.939 µM | > 10 µM | 3.51 µM | > 5.84 µM | 3.93 µM |
| c1cncc(CC2(c3cc4ccccc4[nH]3)OCCO2)c1 | > 100 µM | – | > 100 µM | > 100 µM | – | > 100 µM | > 100 µM | > 100 µM | > 100 µM | > 100 µM |
| Cc1cc(C)c2c(=O)cc(-c3cccc(F)c3)[nH]c2n1 | 0.122 µM | > 79.9 µM | 6.38 µM | 0.226 µM | > 100 µM | 0.141 µM | > 26.9 µM | – | > 100 µM | > 100 µM |
| O=C1C=CC(=O)N1n1c(-c2ccccc2)n[nH]c1=O | > 100 µM | > 100 µM | > 100 µM | > 100 µM | > 100 µM | > 100 µM | > 100 µM | – | – | > 100 µM |
| C[C@]12CCC(=O)[C@@H](CCC3=CC(=O)C=CC3=O)[C@@H]1CCC2=O | > 100 µM | > 100 µM | 20.7 µM | 39.1 µM | 59.1 µM | 5.64 µM | 39.6 µM | > 58.7 µM | 31.1 µM | 53.2 µM |
| CCn1c2ccc(C(=O)CCCN3CCCCC3)cc2c2cc(C(=O)CCCN3CCCCC3)ccc21 | 5.31 µM | 18.2 µM | 2.92 µM | > 100 µM | 3.6 µM | 4.05 µM | 10.3 µM | 3.9 µM | 18.6 µM | 5.65 µM |
| CCC1=C(C(C)=O)[C@@H]2CCCCC[C@@H](C(=O)OC)C2C1=O (stereo partly specified) | > 100 µM | > 100 µM | > 100 µM | > 100 µM | > 100 µM | > 100 µM | > 100 µM | > 100 µM | > 100 µM | > 100 µM |
